Source: patent US20260055154A1, “LONG-ACTING DUAL-AGONIST COMPOUND” (CHENGDU AODA BIOTECHNOLOGY CO., LTD, priority 2022, published 2026)
Where two headings read alike, the source gives them in different places. Starred links: 1 amine or outer side, 2 acyl side, 3 side chain; linkers in the order of their positions; H or OH if unused. Non-standard residues stand in square brackets, D forms with d. Residues, ends and D or L forms follow the SMILES beside them. Groups on a side chain read outwards from the residue. No end group written: not given here. *: point of attachment. X1 = O=C(O)CCCCCCCCCCCCCCCCCCC(=O)N[C@@H](CCC(=O)NCCOCCOCCOCCOCCOCC(=O)*)C(=O)O; C20 diacid = O=C(O)CCCCCCCCCCCCCCCCCCC(=O)*; γGlu = O=C(O)[C@H](CCC(=O)[*:2])N[*:1]; AEEA = NCCOCCOCC(=O)O; Aib = CC(C)(N)C(=O)O

Key:
in vivo [1] = experiment: in vivo; design: species or system cynomolgus monkeys; conditions: male, cynomolgus monkey, sc, 0.2 mg/kg
Method: The experimental animals were cynomolgus monkeys, and two male cynomolgus monkeys in each group were subcutaneously administrated the compound at a dose of 0.2 mg/kg. The venous blood samples were collected before drug administration (0 h), and 1 h, 2 h, 3 h, 4 h, 8 h, 12 h, 18 h, 24 h, 48 h, 96 h, 144 h and 168 h after administration, respectively. The plasma samples were separated by centrifugation. The blood drug concentrations of the corresponding compounds in the plasma samples were determined by liquid chromatography-mass spectrometry.

in vivo [2] = conditions: human
GcgR = target: T1, GcgR (Homo sapiens, UniProt P47871); experiment: Gcg activity determination (cAMP, chemiluminescence, stable cell line); assay type: cell-based; conditions: CHO-K1 cell line stably expressing GcgR; OXM3 as reference
T1 construct: expressed in transfected cells; host or cells: CHO-K1
Method: (§1) GcgR activates the intracellular adenylate cyclase pathway under the stimulation of its specific agonist, to increase the cAMP level and ultimately lead to the production and release of insulin. The stably cell line expressing GcgR was stimulated by the test substance to rapidly increase the intracellular cAMP level. The relative light units (RLU) in the cells after the stimulation by each dose of agonists were determined by the chemiluminescence method, and then the EC50 of the agonist was calculated. This activity determination method is currently a common determination method for Geg receptor agonist activity at home and abroad.
A CHO-K1 cell line stably expressing GcgR was adopted. The cells were stimulated with different concentrations of agonists, and the relative light units (RLU) after the stimulation of cells by each dose of agonists were determined. Using OXM3 as a reference, the relative biological activity of the agonist was obtained.

GLP-1R = target: T2, GLP-1R (Homo sapiens, UniProt P43220); experiment: Determination of GLP-1 activity (cAMP, chemiluminescence, stable cell line); assay type: cell-based; conditions: CHO-K1 cell line stably expressing GLP-1R; OXM3 as reference substance
T2 construct: expressed in transfected cells; host or cells: CHO-K1
Method: as §1, with “GLP-1R” for “GcgR”, “stable” for “stably”, “after” for “after the”, “the test substance” for “agonists”, “GLP-1” for “Geg”
A CHO-K1 cell line that stably expresses GLP-IR was adopted, and the cells were stimulated with different concentrations of agonists. The relative light units after stimulation of the cells by each dose of agonists were measured. Using OXM3 as a reference substance, the relative biological activity of each agonist was obtained.

[3] = human, in vivo; cited from earlier work

T1 sequence (P47871 26-477, species assumed): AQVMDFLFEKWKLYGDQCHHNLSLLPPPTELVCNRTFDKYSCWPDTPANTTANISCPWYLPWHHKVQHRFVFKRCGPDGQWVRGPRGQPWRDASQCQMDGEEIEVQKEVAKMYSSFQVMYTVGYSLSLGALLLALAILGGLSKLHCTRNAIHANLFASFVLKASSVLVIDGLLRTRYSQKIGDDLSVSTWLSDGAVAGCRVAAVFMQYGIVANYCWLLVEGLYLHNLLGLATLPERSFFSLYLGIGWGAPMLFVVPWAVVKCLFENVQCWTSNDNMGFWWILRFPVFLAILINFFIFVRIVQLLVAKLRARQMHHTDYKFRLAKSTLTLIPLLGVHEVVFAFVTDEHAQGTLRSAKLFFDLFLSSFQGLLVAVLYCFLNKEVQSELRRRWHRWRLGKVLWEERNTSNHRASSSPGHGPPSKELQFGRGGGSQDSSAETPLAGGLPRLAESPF
T2 sequence (P43220 24-463, species assumed): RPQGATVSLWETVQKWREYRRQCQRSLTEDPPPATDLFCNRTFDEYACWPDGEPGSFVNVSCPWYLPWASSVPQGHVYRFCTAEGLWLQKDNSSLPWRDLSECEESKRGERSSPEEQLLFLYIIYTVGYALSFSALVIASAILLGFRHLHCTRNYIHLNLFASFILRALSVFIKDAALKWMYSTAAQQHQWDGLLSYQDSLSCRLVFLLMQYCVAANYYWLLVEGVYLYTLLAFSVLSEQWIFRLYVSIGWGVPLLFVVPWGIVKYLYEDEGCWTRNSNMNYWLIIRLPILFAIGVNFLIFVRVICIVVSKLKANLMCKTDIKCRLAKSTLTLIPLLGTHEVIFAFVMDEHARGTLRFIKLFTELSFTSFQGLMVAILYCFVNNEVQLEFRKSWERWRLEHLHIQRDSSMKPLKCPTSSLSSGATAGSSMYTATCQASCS

In the case of `CC(C)C[C@H](NC(=O)[C@H](CC(C)C)NC(=O)[C@H](Cc1c[nH]c2ccccc12)NC(=O)[C@H](CCC(=O)O)NC(=O)[C@@H](NC(=O)[C@H](Cc1ccccc1)NC(=O)[C@H](CCC(=O)O)NC(=O)[C@H](CCCCNC(=O)COCCOCCOCCOCCOCCNC(=O)CC[C@H](NC(=O)CCCCCCCCCCCCCCCCCCC(=O)O)C(=O)O)NC(=O)[C@H](C)NC(=O)[C@H](CCCCN)NC(=O)[C@H](CCCCN)NC(=O)[C@H](CCC(=O)O)NC(=O)[C@H](CC(=O)O)NC(=O)[C@H](CC(C)C)NC(=O)[C@H](Cc1ccc(O)cc1)NC(=O)[C@H](CCCCN)NC(=O)[C@H](CO)NC(=O)[C@H](Cc1ccc(O)cc1)NC(=O)[C@H](CC(=O)O)NC(=O)[C@H](CO)NC(=O)[C@@H](NC(=O)[C@H](Cc1ccccc1)NC(=O)[C@@H](NC(=O)CNC(=O)[C@H](CCC(N)=O)NC(=O)C(C)(C)NC(=O)[C@@H](N)Cc1c[nH]cn1)[C@@H](C)O)[C@@H](C)O)C(C)C)C(=O)N[C@@H](CCC(=O)O)C(=O)NCC(=O)NCC(=O)N1CCC[C@H]1C(=O)N[C@@H](CO)C(=O)N[C@@H](CO)C(=O)NCC(=O)N[C@@H](C)C(=O)N1CCC[C@H]1C(=O)N1CCC[C@H]1C(=O)N1CCC[C@H]1C(=O)N[C@@H](CO)C(N)=O` [Compound 2, His-Aib-Gln-Gly-Thr-Phe-Thr-Ser-Asp-Tyr-Ser-Lys-Tyr-Leu-Asp-Glu-Lys-Lys-Ala-Lys(PEG5CH2CO-γGlu-eicosanedioic acid)-Glu-Phe-Val-Glu-Trp-Leu-Leu-Glu-Gly-Gly-Pro-Ser-Ser-Gly-Ala-Pro-Pro-Pro-Ser-NH2] (H-H[Aib]QGTFTSDYSKYLDEKKAK(X1)EFVEWLLEGGPSSGAPPPS-NH2), the half-life (in vivo [1]) is reported as 140 h, the half-life (in vivo [2]) is reported as ~280 h and the “Biological activity (%)” value (GcgR) is reported as 86.9%. It also gave a Relative biological activity (GLP-1R) of 259.9%.

For “His-Aib-Gln-Gly-Thr-Phe-Thr-Ser-Asp-Tyr-Ser-Lys-Tyr-Leu-Asp-Glu-Lys-Lys-Ala-Lys(AEEA-AEEA-γGlu-eicosanedioic acid)-Glu-Phe-Val-Glu-Trp-Leu-Leu-Glu-Gly-Gly-Pro-Ser-Ser-Gly-NH2 (H[Aib]QGTFTSDYSKYLDEKKAK([AEEA-AEEA-γGlu-C20 diacid])EFVEWLLEGGPSSG-NH2) [OXM3]”, the half-life [3] is given as 120 h.
